How the values were obtained:
BRM = BRM (Homo sapiens, UniProt P51531); experiment: ATPase catalytic activity of BRM (ADP-Glo in vitro biochemical assay); conditions: for BRM Max % Inhibition: Table 6
BRG-1 = BRG-1 (Homo sapiens, UniProt P51532); experiment: ATPase catalytic activity of BRG-1 (ADP-Glo in vitro biochemical assay); conditions: for BRG1 Max % Inhibition: Table 6
Sequence of BRG-1 (P51532 whole entry): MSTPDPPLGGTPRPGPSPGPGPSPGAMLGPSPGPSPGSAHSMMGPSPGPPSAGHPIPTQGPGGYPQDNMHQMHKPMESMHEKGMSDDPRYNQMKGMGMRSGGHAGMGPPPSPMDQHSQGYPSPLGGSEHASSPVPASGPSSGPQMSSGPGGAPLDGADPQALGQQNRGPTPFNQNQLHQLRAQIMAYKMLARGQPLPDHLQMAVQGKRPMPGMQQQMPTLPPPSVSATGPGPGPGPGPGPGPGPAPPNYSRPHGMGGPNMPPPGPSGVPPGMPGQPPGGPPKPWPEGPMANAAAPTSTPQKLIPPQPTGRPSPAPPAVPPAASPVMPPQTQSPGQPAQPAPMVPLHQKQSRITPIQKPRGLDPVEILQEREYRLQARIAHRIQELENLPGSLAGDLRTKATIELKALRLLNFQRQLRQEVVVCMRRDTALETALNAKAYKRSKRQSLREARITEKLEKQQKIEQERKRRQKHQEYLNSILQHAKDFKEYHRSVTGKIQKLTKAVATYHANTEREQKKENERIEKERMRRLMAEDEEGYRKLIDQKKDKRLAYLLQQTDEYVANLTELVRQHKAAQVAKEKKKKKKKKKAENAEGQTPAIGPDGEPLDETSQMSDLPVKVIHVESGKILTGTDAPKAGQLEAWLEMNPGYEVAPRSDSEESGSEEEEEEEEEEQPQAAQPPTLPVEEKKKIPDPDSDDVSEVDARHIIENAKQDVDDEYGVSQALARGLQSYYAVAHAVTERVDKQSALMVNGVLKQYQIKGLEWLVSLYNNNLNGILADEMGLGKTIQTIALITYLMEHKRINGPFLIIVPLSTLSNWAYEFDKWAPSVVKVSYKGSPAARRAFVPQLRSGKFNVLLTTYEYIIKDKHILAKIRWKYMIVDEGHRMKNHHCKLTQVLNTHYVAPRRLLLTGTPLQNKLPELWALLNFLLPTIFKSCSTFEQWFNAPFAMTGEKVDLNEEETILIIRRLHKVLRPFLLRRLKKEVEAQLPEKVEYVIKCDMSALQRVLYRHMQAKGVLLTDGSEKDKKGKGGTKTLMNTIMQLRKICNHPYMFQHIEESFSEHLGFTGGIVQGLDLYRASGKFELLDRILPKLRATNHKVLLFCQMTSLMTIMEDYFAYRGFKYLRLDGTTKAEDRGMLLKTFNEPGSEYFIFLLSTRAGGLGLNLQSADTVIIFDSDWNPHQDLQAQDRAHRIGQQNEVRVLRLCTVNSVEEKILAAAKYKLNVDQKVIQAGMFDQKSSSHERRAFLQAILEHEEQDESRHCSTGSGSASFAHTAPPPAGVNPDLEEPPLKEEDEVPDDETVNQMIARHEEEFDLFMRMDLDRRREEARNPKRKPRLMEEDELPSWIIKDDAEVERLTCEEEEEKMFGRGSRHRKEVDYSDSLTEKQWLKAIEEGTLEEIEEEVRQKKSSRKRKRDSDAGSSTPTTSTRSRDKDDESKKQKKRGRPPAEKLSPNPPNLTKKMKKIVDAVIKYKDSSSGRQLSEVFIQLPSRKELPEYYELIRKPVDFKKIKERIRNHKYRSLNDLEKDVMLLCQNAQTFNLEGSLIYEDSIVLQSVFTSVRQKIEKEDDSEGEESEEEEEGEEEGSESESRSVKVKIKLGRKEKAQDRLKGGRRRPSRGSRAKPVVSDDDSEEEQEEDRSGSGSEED

Sequence of BRM (P51531 whole entry): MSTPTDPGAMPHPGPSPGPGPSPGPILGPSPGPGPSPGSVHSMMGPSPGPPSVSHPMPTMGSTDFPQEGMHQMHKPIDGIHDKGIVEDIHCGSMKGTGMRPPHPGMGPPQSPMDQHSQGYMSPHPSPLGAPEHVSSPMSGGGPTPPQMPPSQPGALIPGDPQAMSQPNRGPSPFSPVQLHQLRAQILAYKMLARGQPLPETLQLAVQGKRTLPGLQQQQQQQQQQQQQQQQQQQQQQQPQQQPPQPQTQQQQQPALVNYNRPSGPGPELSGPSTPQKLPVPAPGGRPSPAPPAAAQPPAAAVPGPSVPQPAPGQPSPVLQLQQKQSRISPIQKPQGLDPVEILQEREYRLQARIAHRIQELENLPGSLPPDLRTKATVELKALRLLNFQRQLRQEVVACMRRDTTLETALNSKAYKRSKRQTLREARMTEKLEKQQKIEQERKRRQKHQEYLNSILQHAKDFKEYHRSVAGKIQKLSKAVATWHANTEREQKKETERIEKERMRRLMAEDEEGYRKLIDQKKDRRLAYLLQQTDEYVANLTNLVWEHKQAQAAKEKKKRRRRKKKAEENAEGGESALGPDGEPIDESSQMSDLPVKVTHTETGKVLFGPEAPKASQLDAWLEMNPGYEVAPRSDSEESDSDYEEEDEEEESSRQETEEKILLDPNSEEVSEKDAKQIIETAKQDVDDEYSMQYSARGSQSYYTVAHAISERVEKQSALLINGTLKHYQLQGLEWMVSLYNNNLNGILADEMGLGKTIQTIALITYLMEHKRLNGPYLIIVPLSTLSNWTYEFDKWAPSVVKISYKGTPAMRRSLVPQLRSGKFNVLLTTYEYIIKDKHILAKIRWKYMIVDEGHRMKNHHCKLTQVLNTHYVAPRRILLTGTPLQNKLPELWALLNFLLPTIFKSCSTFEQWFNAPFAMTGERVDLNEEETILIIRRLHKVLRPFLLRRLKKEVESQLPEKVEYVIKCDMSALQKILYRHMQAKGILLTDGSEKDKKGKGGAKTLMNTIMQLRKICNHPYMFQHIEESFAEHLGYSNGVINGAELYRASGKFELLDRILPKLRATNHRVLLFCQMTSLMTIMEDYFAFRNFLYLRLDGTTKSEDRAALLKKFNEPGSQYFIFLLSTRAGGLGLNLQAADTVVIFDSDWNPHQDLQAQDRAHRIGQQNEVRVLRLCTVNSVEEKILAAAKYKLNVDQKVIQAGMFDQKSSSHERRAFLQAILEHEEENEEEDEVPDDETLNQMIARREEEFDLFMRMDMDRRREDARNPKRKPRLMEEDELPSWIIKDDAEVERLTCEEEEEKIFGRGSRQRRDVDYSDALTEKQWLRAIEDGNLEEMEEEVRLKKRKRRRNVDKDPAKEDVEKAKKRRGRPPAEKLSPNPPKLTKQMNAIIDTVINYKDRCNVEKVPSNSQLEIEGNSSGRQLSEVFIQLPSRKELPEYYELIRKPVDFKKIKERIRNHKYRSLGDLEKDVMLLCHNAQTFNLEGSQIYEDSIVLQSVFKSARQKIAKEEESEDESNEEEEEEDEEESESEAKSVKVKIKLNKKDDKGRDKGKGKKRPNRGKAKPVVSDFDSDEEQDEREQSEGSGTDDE

Compound	IC50 (BRM) [µM]	BRM Max % Inhibition (BRM) [%]	IC50 (BRG-1) [µM]	BRG1 Max % Inhibition (BRG-1) [%]
O=C(CNC(=O)c1cnc2c(c1)CCCN2)Nc1nc(-c2cccc(-c3ccncc3)c2)cs1 [Compound 102, N-(2-oxo-2-((4-(3-(pyridin-4-yl)phenyl)thiazol-2-yl)amino)ethyl)-5,6,7,8-tetrahydro-1,8-naphthyridine-3-carboxamide]	0.1 to 1	>80	0.1 to 1	>80
O=C(CNC(=O)c1ccc(N2CC(O)C2)cc1)Nc1nc(-c2cccc(-c3ccncc3)c2)cs1 [Compound 103, 4-(3-hydroxyazetidin-1-yl)-N-(2-oxo-2-((4-(3-(pyridin-4-yl)\phenyl)thiazol-2-yl)amino)ethyl)benzamide]	0.1 to 1	>70	1 to 10	>80
CS(=O)(=O)c1ccnc(C(=O)NCC(=O)Nc2nc(-c3cccc(-c4ccncc4)c3)cs2)c1 [Compound 104, 4-methylsulfonyl-N-[2-oxo-2-[[4-[3-(4-pyridyl)phenyl]thiazol-2-yl]amino]ethyl]pyridine-2-carboxamide]	< 0.1	>70	< 0.1	>60
O=C(CNC(=O)c1ccc2c(c1)CC(O)CN2)Nc1nc(-c2cccc(-c3ccncc3)c2)cs1 (centres unmarked) [Compound 105, 3-hydroxy-N-[2-oxo-2-[[4-[3-(4-pyridyl)phenyl]thiazol-2-yl]amino]ethyl]-1,2,3,4-tetrahydroquinoline-6-carboxamide]	0.1 to 1	>80	0.1 to 1	>50
CSCC[C@H](NC(=O)c1ccc(N)cc1)C(=O)Nc1nc(-c2ccc(C#N)cc2)cs1 [Compound 107, (S)-4-amino-N-(1-((4-(4-cyanophenyl)thiazol-2-yl)amino)-4-(methylthio)-1-oxobutan-2-yl)benzamide]	0.1 to 1	>95	1 to 10	>95
Nc1ccc(C(=O)NCC(=O)Nc2nc(-c3ccc4c(c3)OCCO4)cs2)cc1 [Compound 109, 4-amino-N-(2-((4-(2,3-dihydrobenzo[b][1,4]dioxin-6-yl)thiazol-2-yl)amino)-2-oxoethyl)benzamide]	0.1 to 1	>90	0.1 to 1	>90
COC(=O)N1CCC=C(c2csc(NC(=O)CNC(=O)c3ccc(N)cc3)n2)C1 [Compound 110, methyl 3-(2-(2-(4-aminobenzamido)acetamido)thiazol-4-yl)-5,6-dihydropyridine-1(2H)-carboxylate]	0.1 to 1	>80	1 to 10	>80

Now from value to compound:

IC50 (BRM) [µM]	BRM Max % Inhibition (BRM) [%]	IC50 (BRG-1) [µM]	BRG1 Max % Inhibition (BRG-1) [%]	Compound
0.1 to 1	>90	0.1 to 1	>90	Nc1ccc(C(=O)NCC(=O)Nc2nc(-c3ccc4c(c3)CCO4)cs2)cc1 [Compound 111, 4-amino-N-(2-((4-(2,3-dihydrobenzofuran-5-yl)thiazol-2-yl)amino)-2-oxoethyl)benzamide]
0.1 to 1	>90	0.1 to 1	>80	Nc1ccc(C(=O)NCC(=O)Nc2nc(-c3ccc4c(c3)OCC4)cs2)cc1 [Compound 112, 4-amino-N-(2-((4-(2,3-dihydrobenzofuran-6-yl)thiazol-2-yl)amino)-2-oxoethyl)benzamide]
0.1 to 1	>80	1 to 10	>80	Nc1ccc(C(=O)NCC(=O)Nc2nc(-c3ccccc3O)cs2)cc1 [Compound 114, 4-amino-N-(2-((4-(2-hydroxyphenyl)thiazol-2-yl)amino)-2-oxoethyl)benzamide]
0.1 to 1	>90	0.1 to 1	>90	Nc1ccc(C(=O)NCC(=O)Nc2nc(-c3ccc(O)cc3)cs2)cc1 [Compound 115, 4-amino-N-(2-((4-(4-hydroxyphenyl)thiazol-2-yl)amino)-2-oxoethyl)benzamide]
